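Following 48 hours of exposure in 96-well plates, responses at five concentrations were used to interpolate endpoints linearly. The concentration for 50% growth inhibition is given as GI50.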 Active and inactive are the calls of the source. No stated cut-off is given here; in the data, active = GI50 up to about 1.1 µM and inactive = higher.

The source of these data is ChEMBL document CHEMBL1201862, “PubChem BioAssay data set” (2004).

Among the test systems are OVCAR-3; OVCAR-4; UACC-62; SF-295; Malme-3M; NCI-H226; CCRF-CEM; HCT-15; HL-60; OVCAR-5; U-251; ACHN; UACC-257; DU-145; TK-10; UO-31; SF-268; CAKI-1; SN12C; MCF7.
Holding throughout (assay): DTP human tumour cell line panel, 48 h

Broadly, the GI50 is the concentration at which growth is held to half of that of the control. As for `O=C1C2=C(C(=O)c3c(O)ccc(O)c31)[C@@H](O)[C@@H](O)[C@@H](O)C2`, the GI50 is 0.504 µM (active) in the test with OVCAR-3; 1.93 µM (inactive) in the test on OVCAR-4; 3.52 µM (inactive) in the test on UACC-62; 7.24 µM (inactive) with SF-295; 1.14 µM (inactive) with Malme-3M; 15.1 µM (inactive) with NCI-H226. For the same compound, the GI50 in the test on CCRF-CEM is 0.0486 µM (active); with HCT-15, 2.76 µM; in the test with HL-60 it was 0.635 µM (active); in the test with OVCAR-5, 7.96 µM (inactive); in the test with U-251, 4.82 µM (inactive); in the test on ACHN, 2.52 µM (inactive). For the same compound, the GI50 in the test on UACC-257 was 0.957 µM (active); in the test on DU-145 it was 2.72 µM (inactive); in the test with TK-10, 1.52 µM (inactive); with UO-31, 4.66 µM (inactive); in the test with SF-268, 2.78 µM (inactive); in the test with CAKI-1 it was 1.37 µM (inactive). The values for the GI50 with SN12C and in the test on MCF7 were 2.01 µM (inactive) and 1.11 µM (active), respectively.

As to `CCOC(=O)c1nc2ccccc2nc1Nc1ccc(OC)cc1`, the GI50 in the test on OVCAR-3 was 19.7 µM (inactive); in the test on OVCAR-4 it was 18.5 µM (inactive); in the test on UACC-62, 28.5 µM (inactive); with SF-295 it was 19.5 µM (inactive); in the test with Malme-3M, 93.8 µM (inactive); in the test with NCI-H226, 37.5 µM (inactive). Also, the GI50 in the test with CCRF-CEM is > 100 µM (inactive); with HCT-15, more than 100 µM; in the test on HL-60 it was > 100 µM (inactive); in the test on OVCAR-5, 83.8 µM (inactive); in the test with U-251, 35.1 µM (inactive); with ACHN, 32.4 µM (inactive). Besides, the GI50 in the test on UACC-257 is 49.5 µM (inactive); in the test with DU-145 it was 73.1 µM (inactive); in the test on TK-10, 25.7 µM (inactive); in the test on UO-31, 88.7 µM (inactive); in the test with SF-268, 51.6 µM (inactive); with CAKI-1, 13.8 µM (inactive). The GI50 in the test with SN12C was 14.8 µM (inactive); in the test on MCF7, > 100 µM (inactive).

Turning to `COC(=O)C(Cc1ccccc1)NP(=O)(O)OCC1OC(n2ccc(N)nc2=O)C(O)C1O` (stereo not given), the GI50 with OVCAR-3, in the test with OVCAR-4, in the test with UACC-62, with SF-295, in the test on Malme-3M and in the test with NCI-H226 was > 100 µM (inactive) throughout. Besides, the GI50 in the test on CCRF-CEM is 50.9 µM (inactive); with HCT-15, more than 100 µM; with HL-60 it was > 100 µM (inactive); with OVCAR-5, > 100 µM (inactive); in the test with U-251, > 100 µM (inactive); in the test on ACHN it was > 100 µM (inactive). The GI50 in the test with UACC-257 was > 100 µM (inactive); with DU-145, > 100 µM (inactive); in the test on TK-10 it was 40.8 µM (inactive); in the test on UO-31, > 100 µM (inactive); in the test on SF-268 it was > 100 µM (inactive); with CAKI-1, > 100 µM (inactive). Further, the GI50 with SN12C and in the test on MCF7 was > 100 µM (inactive) throughout.

As for `O=C1/C(=C/c2ccc(Br)s2)NC(=S)N1c1ccccc1`, the GI50 in the test with OVCAR-3 is 62.4 µM (inactive); in the test on OVCAR-4, 27 µM (inactive); with UACC-62 it was 47.2 µM (inactive); in the test with SF-295, 43.6 µM (inactive); in the test with Malme-3M it was 68.1 µM (inactive); with NCI-H226, > 100 µM (inactive). Also, the GI50 in the test with CCRF-CEM was > 100 µM (inactive); in the test with HCT-15, 80.5 µM; with HL-60 it was > 100 µM (inactive); with OVCAR-5 it was > 100 µM (inactive); in the test on U-251, 36.6 µM (inactive); in the test on ACHN, 32.1 µM (inactive). The GI50 in the test with UACC-257 is 65.6 µM (inactive); in the test with DU-145, > 100 µM (inactive); in the test with TK-10, > 100 µM (inactive); in the test with UO-31, > 100 µM (inactive); in the test on SF-268, > 100 µM (inactive); with CAKI-1, 44.5 µM (inactive). Also, the values for the GI50 in the test with SN12C and in the test with MCF7 were 74.3 µM (inactive) and 34.5 µM (inactive), respectively.
